Test results reported in US7601716B2, “Pyridopyrazines and derivatives thereof as ALK and c-Met inhibitors” (Cephalon, Inc., priority 2006, dated 2009).
pIC50: −log10 of the molar value.

Key:
[1] = biological target: T1, c-Met (phospho-c-Met) in HT29 cells (Homo sapiens, UniProt P08581); assay: c-Met Cellular Activity/Autophosphorylation Assay, HT29 cells; format: cell-based; conditions: for inhibition at 1 µM: HT-29, 1 μM compound, read-out: c-Met autophosphorylation inhibition score, HT29 Cells (1 μM); for inhibition at 3 µM: HT-29, 3 μM compound, read-out: c-Met autophosphorylation inhibition score, HT29 Cells (3 μM)
T1 construct: endogenous in cells; host or cells: HT29, A549 (HGF-stimulated), GTL-16
Method: (§1) HT29 and GTL-16 cells were serum starved for one hour in media containing 0.05% BSA and varying concentrations of Example compounds (1-10 μM). A549 cells were serum starved overnight in media containing 0.05% BSA then treated for one hour with Example compounds followed by a 15 minute stimulation with 50 ng/mL HGF (Peprotech, Rocky Hill, N.J.), respectively. Samples were resolved by electrophoresis on a 3-8% Tris-Acetate gel (40 ma/gel) and then transferred to a nitrocellulose membrane. Membranes were blocked for one hour at room temperature in Odyssey Blocking Buffer (Licor #927-40000) diluted 1:1 with 1×TBS. Membranes were then co-incubated overnight at 4° C. with primary antibodies [total Met (Cell Signaling, #3127) and Phospho-Met (Biosource, #44-888G) 1:1000 each in Odyssey Blocking Buffer diluted 1:1 with 1×TBS-T 0.05%]. The next day, membranes were washed and co-incubated with secondary antibodies [Goat anti mouse IRDye800 (Rockland, #610-132-121) and Goat anti rabbit Alexa fluor 700 (Molecular Probes, #A21038) 1:10,000] in Odyssey Blocking Buffer diluted 1:1 with 1×TBS-T 0.05% for one hour at room temperature protected from light. Blots were then washed and read on the Odyssey Infrared Imager. Total c-Met signal was visualized at 800 nm detection and phospho-c-Met signal was visualized at 700 nm detection.

[2] = biological target: T2, c-Met (phospho-c-Met) in A549 cells (Homo sapiens, UniProt P08581); assay: c-Met Cellular Activity/Autophosphorylation Assay, A549 cells (HGF stimulated); format: cell-based; conditions: 50 ng/mL HGF; for inhibition at 1 µM: 1 μM compound, read-out: c-Met autophosphorylation inhibition score, A549 Cells (1 μM); for inhibition at 3 µM: 3 μM compound, read-out: c-Met autophosphorylation inhibition score, A549 Cells (3 μM)
T2 construct: endogenous in cells; host or cells: HT29, A549 (HGF-stimulated), GTL-16
Method: as §1

[3] = biological target: baculovirus-expressed ALK (Homo sapiens, UniProt Q9UM73); assay: ALK Kinase Assay (ELISA/TRF, PLC-γ substrate); format: biochemical; conditions: read-out: ALK Kinase Inhibition (IC50); note: 1 µM ATP (Km level)
How it was run: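 Substrate phosphorylation by 30 ng/ml ALK (37° C, 15 min) on PLC-γ-coated wells is quantified via time-resolved europium fluorescence from an anti-phosphotyrosine antibody. Percent inhibition against log10 compound concentration yields IC50 by nonlinear regression.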

[4] = biological target: T3, c-Met (cytoplasmic domain) (Homo sapiens, UniProt P08581); assay: c-Met Kinase Assay (ELISA/TRF, PLC-γ substrate); format: biochemical; conditions: 3 μM ATP (Km level); read-out: c-Met Kinase Inhibition (IC50)
T3 construct: Reactions were initiated with 30 ng/mL c-Met (cytoplasmic domain, Invitrogen Corporation #PV3143); purchased Invitrogen Corporation PV3143
How it was run: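 Readout is TRF of europium anti-phosphotyrosine (PT66) bound to GST–PLC-γ substrate coated at 10 μg/mL, after a 15 min, 37 °C reaction started with 30 ng/mL c-Met cytoplasmic domain. Percent inhibition plotted against log compound concentration and fitted (variable slope) for IC50.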

T2 sequence (P08581 25-1390): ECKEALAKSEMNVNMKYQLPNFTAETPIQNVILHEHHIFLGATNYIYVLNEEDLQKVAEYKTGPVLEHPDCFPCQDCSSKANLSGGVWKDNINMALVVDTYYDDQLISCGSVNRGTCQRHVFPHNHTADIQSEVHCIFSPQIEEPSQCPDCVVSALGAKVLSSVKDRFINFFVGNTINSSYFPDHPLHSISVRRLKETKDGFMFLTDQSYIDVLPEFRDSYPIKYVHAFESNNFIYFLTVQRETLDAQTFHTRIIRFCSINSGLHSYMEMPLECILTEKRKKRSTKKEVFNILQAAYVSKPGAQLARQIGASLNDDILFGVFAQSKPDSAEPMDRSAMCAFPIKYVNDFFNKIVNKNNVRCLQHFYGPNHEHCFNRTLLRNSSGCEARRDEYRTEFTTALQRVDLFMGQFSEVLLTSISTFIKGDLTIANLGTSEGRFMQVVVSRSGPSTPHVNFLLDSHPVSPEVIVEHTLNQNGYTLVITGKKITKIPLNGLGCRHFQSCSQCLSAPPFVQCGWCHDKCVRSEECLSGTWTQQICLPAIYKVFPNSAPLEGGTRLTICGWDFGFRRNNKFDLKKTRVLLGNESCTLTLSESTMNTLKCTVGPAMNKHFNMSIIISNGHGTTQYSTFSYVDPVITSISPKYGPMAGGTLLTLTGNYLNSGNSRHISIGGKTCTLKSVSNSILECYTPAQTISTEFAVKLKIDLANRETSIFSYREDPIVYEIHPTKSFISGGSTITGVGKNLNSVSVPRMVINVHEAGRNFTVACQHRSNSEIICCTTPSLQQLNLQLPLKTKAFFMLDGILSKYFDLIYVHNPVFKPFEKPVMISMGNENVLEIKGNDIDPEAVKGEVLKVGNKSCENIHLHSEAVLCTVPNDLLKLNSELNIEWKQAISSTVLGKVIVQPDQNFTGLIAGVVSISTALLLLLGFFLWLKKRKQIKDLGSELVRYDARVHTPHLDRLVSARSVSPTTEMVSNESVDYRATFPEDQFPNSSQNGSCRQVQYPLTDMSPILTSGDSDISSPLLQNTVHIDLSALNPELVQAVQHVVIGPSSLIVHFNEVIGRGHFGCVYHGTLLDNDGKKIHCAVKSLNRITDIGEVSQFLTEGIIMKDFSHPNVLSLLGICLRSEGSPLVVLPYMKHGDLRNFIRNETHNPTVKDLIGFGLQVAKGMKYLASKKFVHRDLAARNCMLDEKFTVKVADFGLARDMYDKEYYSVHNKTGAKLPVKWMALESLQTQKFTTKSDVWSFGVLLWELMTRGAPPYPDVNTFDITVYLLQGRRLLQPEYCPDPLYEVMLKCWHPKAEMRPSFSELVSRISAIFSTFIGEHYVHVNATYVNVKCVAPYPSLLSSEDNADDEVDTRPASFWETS
T1 sequence (P08581 25-1390): as above
Chain of baculovirus-expressed ALK (Q9UM73 19-1620): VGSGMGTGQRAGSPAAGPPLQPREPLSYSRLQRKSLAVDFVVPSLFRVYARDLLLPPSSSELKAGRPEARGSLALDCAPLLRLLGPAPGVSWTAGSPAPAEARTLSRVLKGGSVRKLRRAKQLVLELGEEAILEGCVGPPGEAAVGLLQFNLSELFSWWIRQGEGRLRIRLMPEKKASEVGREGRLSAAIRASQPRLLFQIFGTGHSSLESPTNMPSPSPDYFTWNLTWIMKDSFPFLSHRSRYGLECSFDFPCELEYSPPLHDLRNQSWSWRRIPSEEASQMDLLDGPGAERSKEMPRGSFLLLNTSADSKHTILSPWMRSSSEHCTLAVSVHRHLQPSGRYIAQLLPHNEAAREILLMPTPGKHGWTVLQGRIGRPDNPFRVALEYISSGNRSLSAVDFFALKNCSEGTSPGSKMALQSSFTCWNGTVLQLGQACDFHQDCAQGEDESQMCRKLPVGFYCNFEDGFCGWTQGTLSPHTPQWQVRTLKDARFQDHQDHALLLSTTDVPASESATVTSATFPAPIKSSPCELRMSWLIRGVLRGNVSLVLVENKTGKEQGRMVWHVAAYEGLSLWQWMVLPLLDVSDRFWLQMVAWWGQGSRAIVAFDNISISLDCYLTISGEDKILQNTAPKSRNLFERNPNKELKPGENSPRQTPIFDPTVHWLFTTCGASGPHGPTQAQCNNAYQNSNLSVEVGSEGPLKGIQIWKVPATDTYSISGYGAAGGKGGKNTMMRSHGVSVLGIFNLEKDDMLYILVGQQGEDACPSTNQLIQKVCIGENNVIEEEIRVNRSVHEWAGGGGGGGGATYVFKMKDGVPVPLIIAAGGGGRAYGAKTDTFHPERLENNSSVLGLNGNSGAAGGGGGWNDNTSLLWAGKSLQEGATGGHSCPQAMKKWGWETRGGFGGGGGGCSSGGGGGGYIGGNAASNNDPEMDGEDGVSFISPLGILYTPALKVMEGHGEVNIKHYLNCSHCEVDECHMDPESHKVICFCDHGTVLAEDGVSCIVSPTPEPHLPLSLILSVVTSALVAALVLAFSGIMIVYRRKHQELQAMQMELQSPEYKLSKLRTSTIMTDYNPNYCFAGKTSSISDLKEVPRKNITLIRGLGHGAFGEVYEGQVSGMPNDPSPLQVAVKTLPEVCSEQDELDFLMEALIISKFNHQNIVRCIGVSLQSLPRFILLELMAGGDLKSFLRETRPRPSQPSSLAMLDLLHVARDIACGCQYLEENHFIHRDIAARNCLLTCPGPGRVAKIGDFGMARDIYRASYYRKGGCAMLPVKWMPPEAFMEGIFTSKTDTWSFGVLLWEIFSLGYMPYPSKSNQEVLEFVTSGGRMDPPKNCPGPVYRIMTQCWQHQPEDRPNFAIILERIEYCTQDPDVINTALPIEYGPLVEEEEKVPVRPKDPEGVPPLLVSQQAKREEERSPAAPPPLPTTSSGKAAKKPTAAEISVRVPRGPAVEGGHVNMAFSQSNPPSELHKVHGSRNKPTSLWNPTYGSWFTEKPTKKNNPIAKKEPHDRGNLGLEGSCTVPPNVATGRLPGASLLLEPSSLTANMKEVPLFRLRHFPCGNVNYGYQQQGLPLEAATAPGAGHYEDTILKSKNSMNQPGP
T3 sequence (P08581 956-1390 limits assumed): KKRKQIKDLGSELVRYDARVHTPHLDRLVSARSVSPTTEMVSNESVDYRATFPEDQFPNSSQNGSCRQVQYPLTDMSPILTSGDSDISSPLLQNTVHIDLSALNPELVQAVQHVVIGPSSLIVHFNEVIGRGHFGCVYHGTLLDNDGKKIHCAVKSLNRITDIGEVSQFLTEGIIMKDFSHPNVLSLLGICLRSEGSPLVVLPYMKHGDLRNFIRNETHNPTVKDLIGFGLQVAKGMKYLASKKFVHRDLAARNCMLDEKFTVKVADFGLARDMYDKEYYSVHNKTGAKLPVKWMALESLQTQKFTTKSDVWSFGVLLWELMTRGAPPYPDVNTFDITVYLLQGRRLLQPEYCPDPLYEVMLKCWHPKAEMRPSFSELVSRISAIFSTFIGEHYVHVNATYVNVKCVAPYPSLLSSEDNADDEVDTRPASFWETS

| inhibition at 1 µM [1] [%] | inhibition at 3 µM [1] [%] | inhibition at 1 µM [2] [%] | inhibition at 3 µM [2] [%] | pIC50 [3] | pIC50 [4] | melting point | SMILES |
| --- | --- | --- | --- | --- | --- | --- | --- |
| 0 to 25 | 26 to 50 | 0 to 25 | 0 to 25 | > 7.00 | 6.00 to 7.00 |  | O=C(c1ccc(-c2cnc3c(c2)N(Cc2cc(Cl)ccc2C(F)(F)F)CCN3)cc1)N1CCC(N2CCOCC2)CC1 [Example 287, (4-{1-[5-Chloro-2-(trifluoromethyl)benzyl]-1,2,3,4-tetrahydropyrido[2,3-b]pyrazin-7-yl}phenyl)-(4-morpholin-4-yl-piperidin-1-yl)methanone] |
| 26 to 50 | 26 to 50 | 0 to 25 | 26 to 50 | 6.00 to 7.00 | 5.00 to 6.00 |  | CN1CCN(c2ccc(-c3cnc4c(c3)N(Cc3cc(C(F)(F)F)ccc3Cl)CCN4)cn2)CC1 [Example 120, 1-(2-Chloro-5-trifluoromethylbenzyl)-7-[6-(4-methylpiperazin-1-yl)pyridin-3-yl]-1,2,3,4-tetrahydropyrido[2,3-b]pyrazine] |
| 51 to 75 | 76 to 100 |  |  | > 7.00 | 5.00 to 6.00 | > 200 °C | Nc1ccc(-c2cnc3c(c2)N(Cc2c(F)ccc(F)c2Cl)CCN3)cn1 [Example 184, 5-[1-(2-Chloro-3,6-difluorobenzyl)-1,2,3,4-tetrahydropyrido[2,3-b]pyrazin-7-yl]-pyridin-2-ylamine] |
| 26 to 50 | 51 to 75 | 0 to 25 | 26 to 50 |  |  |  | CN1CCN(c2ccc(-c3cnc4c(c3)N(Cc3cc(Cl)ccc3C(F)(F)F)CCN4)cn2)CC1 [Example 118, 1-(5-Chloro-2-trifluoromethylbenzyl)-7-[6-(4-methylpiperazin-1-yl)pyridin-3-yl]-1,2,3,4-tetrahydropyrido[2,3-b]pyrazine] |
| 0 to 25 | 26 to 50 | 0 to 25 | 0 to 25 | 5.00 to 6.00 | 4.00 to 5.00 |  | CC(C)(C)OC(=O)NCC#Cc1cnc2c(c1)N(Cc1cc(Cl)ccc1Cl)CCN2 [Example 168, {3-[1-(2,5-Dichlorobenzyl)-1,2,3,4-tetrahydropyrido[2,3-b]pyrazin-7-yl]prop-2-ynyl}carbamic acid tert-butyl ester] |
| 26 to 50 | 51 to 75 | 0 to 25 | 26 to 50 | 6.00 to 7.00 | 5.00 to 6.00 |  | Fc1ccc(F)c(CN2CCNc3ncc(-c4ccnc(N5CCOCC5)c4F)cc32)c1Cl [Example 102, 1-(2-Chloro-3,6-difluorobenzyl)-7-(3-fluoro-2-morpholin-4-yl-pyridin-4-yl)-1,2,3,4-tetrahydropyrido[2,3-b]pyrazine] |
| 26 to 50 | 26 to 50 | 0 to 25 | 26 to 50 | 6.00 to 7.00 | 5.00 to 6.00 |  | CN1CCN(c2ccc(-c3cnc4c(c3)N(S(=O)(=O)c3cc(F)ccc3F)CCN4)cn2)CC1 [Example 122, 1-(2,5-Difluorobenzenesulfonyl)-7-[6-(4-methylpiperazin-1-yl)pyridin-3-yl]-1,2,3,4-tetrahydropyrido[2,3-b]pyrazine] |
|  |  |  |  | 4.00 to 5.00 | 4.00 to 5.00 | 200 °C (dec.) | CCOC(=O)CNc1ncc(I)cc1[N+](=O)[O-] [Example 1, (5-Iodo-3-nitro-pyridin-2-ylamino)-acetic acid ethyl ester] |
|  |  |  |  | 5.00 to 6.00 | 5.00 to 6.00 | > 200 °C | O=C(O)c1ccc(-c2cnc3c(c2)N(Cc2c(Cl)cccc2Cl)C(=O)CN3)cc1 [Example 140, 4-[1-(2,6-Dichlorobenzyl)-2-oxo-1,2,3,4-tetrahydropyrido[2,3-b]pyrazin-7-yl]benzoic acid] |
|  |  |  |  | < 4.00 | < 4.00 | > 200 °C | O=C1CNc2ncc(I)cc2N1Cc1c(Cl)cccc1Cl [Example 136, 1-(2,6-Dichlorobenzyl)-7-iodo-3,4-dihydro-1H-pyrido[2,3-b]pyrazin-2-one] |
|  |  |  |  | 4.00 to 5.00 | 4.00 to 5.00 | 58 °C | O=C1CNc2ncc(-c3cccnc3)cc2N1Cc1ccccc1 [Example 11, 1-Benzyl-7-pyridin-3-yl-3,4-dihydro-1H-pyrido[2,3-b]pyrazin-2-one] |
|  |  |  |  | 6.00 to 7.00 | < 4.00 | > 200 °C | Clc1ccc(Cl)c(CN2CCNc3ncc(-c4ccc(N5CCCC5)nc4)cc32)c1 [Example 166, 1-(2,5-Dichlorobenzyl)-7-(6-pyrrolidin-1-yl-pyridin-3-yl)-1,2,3,4-tetrahydropyrido[2,3-b]pyrazine] |
|  |  |  |  | 5.00 to 6.00 | 4.00 to 5.00 | 211 °C | COC(=O)c1cccc(-c2cnc3c(c2)N(Cc2ccccc2)C(=O)CN3)c1 [Example 30, 3-(1-Benzyl-2-oxo-1,2,3,4-tetrahydropyrido[2,3-b]pyrazin-7-yl)benzoic acid methyl ester] |
|  |  |  |  | > 7.00 | 6.00 to 7.00 | 272 °C | Fc1ccc(F)c(CN2CCNc3ncc(-c4cn[nH]c4)cc32)c1Cl [Example 192, 1-(2-Chloro-3,6-difluorobenzyl)-7-(1H-pyrazol-4-yl)-1,2,3,4-tetrahydropyrido[2,3-b]pyrazine] |
|  |  |  |  | 4.00 to 5.00 | 5.00 to 6.00 | 201 to 203 °C | CN1CCN(C(=O)c2ccc(-c3cnc4c(c3)N(C(=O)c3cc(F)ccc3F)CCN4)cc2)CC1 [Example 88, (2,5-Difluorophenyl)-{7-[4-(4-methylpiperazine-1-carbonyl)phenyl]-3,4-dihydro-2H-pyrido[2,3-b]pyrazin-1-yl}-methanone] |
|  |  |  |  | 6.00 to 7.00 | 6.00 to 7.00 | 199 °C | O=C(c1ccc(-c2cnc3c(c2)N(Cc2c(Cl)cccc2Cl)C(=O)CN3)cc1)N1CCC(N2CCCC2)CC1 [Example 161, 1-(2,6-Dichlorobenzyl)-7-[4-(4-(pyrrolidin-1-yl)piperidine-1-carbonyl)phenyl]-3,4-dihydro-1H-pyrido[2,3-b]pyrazin-2-one] |
|  |  |  |  | 4.00 to 5.00 | < 4.00 | 178 °C | CCOC(=O)c1ccc(-c2cnc3c(c2)N(Cc2ccccc2)C(=O)CN3)cc1 [Example 9, 4-(1-Benzyl-2-oxo-1,2,3,4-tetrahydropyrido[2,3-b]pyrazin-7-yl)benzoic acid ethyl ester] |
| 0 to 25 | 51 to 75 |  |  | > 7.00 | 6.00 to 7.00 |  | CN1CCN(C(=O)c2ccc(-c3cnc4c(c3)N(Cc3c(F)ccc(F)c3Cl)CCN4)cc2)CC1 [Example 104, {4-[1-(2-Chloro-3,6-difluorobenzyl)-1,2,3,4-tetrahydropyrido[2,3-b]pyrazin-7-yl]phenyl}-(4-methylpiperazin-1-yl)methanone] |
|  |  |  |  | 6.00 to 7.00 | 4.00 to 5.00 | > 300 °C | O=C(O)c1ccc(-c2cnc3c(c2)N(Cc2cc(F)ccc2F)CCN3)cc1 [Example 64, 4-[1-(2,5-Difluorobenzyl)-1,2,3,4-tetrahydropyrido[2,3-b]pyrazin-7-yl]benzoic acid] |
|  |  |  |  | 6.00 to 7.00 | 5.00 to 6.00 | 164 to 165 °C | CN1CCN(c2ccc(-c3cnc4c(c3)N(S(=O)(=O)c3ccccc3Cl)CCN4)cn2)CC1 [Example 126, 1-(2-Chlorobenzenesulfonyl)-7-[6-(4-methylpiperazin-1-yl)pyridin-3-yl]-1,2,3,4 tetrahydropyrido[2,3-b]pyrazine] |
|  |  |  |  | 5.00 to 6.00 | < 4.00 | 189 to 191 °C | FC(F)(F)c1ccc(Cl)cc1CN1CCNc2ncc(I)cc21 [Example 115, 1-(5-Chloro-2-trifluoromethylbenzyl)-7-iodo-1,2,3,4-tetrahydropyrido[2,3-b]pyrazine] |
